In patent publication US11713327B2, “Heteroaryl heterocyclyl compounds for the treatment of autoimmune disease” (Hoffmann-La Roche Inc., priority 2018, dated 2023):

What was measured:
hERG K+ channels = hERG K+ channels (Homo sapiens (Human), UniProt Q12809); experiment: hERG channel inhibition assay (patch-clamp, CHOhERG cells); assay type: cell-based; conditions: for safety window (hERG IC20/TLR7/8/9 IC50): compared to the compounds of this invention; for hERG IC20/TLR7 IC50 / hERG IC20/TLR9 IC50: safety ratio
hERG K+ channels, sequence (Q12809 whole entry): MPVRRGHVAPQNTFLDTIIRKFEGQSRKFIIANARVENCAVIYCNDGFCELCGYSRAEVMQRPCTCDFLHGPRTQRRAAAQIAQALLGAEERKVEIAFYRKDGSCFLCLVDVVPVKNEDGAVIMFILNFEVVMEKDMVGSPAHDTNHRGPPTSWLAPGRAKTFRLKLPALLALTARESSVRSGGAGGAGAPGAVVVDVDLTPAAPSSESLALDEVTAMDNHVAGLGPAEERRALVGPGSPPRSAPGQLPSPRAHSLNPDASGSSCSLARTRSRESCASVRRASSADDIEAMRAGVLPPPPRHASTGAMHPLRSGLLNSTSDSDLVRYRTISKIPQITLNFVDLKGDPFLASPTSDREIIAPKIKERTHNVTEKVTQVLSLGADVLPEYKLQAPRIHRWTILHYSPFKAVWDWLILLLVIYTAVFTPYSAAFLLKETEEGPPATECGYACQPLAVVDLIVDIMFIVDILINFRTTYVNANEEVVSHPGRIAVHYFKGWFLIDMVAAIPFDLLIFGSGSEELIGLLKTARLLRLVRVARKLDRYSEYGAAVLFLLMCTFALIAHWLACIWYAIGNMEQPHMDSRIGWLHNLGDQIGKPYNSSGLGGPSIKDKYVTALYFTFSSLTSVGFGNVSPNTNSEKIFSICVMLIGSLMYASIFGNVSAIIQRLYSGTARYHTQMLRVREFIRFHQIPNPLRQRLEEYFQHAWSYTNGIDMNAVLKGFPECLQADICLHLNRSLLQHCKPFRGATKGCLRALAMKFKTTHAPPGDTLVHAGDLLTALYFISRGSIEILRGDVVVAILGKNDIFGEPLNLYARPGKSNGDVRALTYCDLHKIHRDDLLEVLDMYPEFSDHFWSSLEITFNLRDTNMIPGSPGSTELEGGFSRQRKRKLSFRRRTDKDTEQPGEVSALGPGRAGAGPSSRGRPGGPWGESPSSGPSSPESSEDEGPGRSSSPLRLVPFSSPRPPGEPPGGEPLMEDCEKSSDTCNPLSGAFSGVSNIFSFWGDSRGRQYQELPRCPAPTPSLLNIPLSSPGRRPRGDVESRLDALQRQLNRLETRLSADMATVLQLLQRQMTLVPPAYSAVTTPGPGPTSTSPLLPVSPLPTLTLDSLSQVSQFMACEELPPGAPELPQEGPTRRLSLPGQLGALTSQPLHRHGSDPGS
Protocol: hERG Channel Inhibition Assay:
The hERG K^+ channels were cloned in humans and stably expressed in a CHO (Chinese hamster ovary) cell line. CHOhERG cells were used for patch-clamp (voltage-clamp, whole-cell) experiments. Cells were stimulated by a voltage pattern to activate hERG channels and conduct IKhERG currents (rapid delayed outward rectifier potassium current of the hERG channel). After the cells were stabilized for a few minutes, the amplitude and kinetics of IKhERG were recorded at a stimulation frequency of 0.1 Hz (6 bpm). Thereafter, the test compound was added to the preparation at increasing concentrations. For each concentration, an attempt was made to reach a steady-state effect, usually, this was achieved within 3-10 min at which time the next highest concentration was applied. The amplitude and kinetics of IKhERG are recorded in each concentration of the drug which were compared to the control values (taken as 100%). (references: Redfern W S, Carlsson L, Davis A S, Lynch W G, MacKenzie I, Palethorpe S, Siegl P K, Strang I, Sullivan A T, Wallis R, Camm A J, Hammond T G. 2003; Relationships between preclinical cardiac electrophysiology, clinical QT interval prolongation and torsade de pointes for a broad range of drugs: evidence for a provisional safety margin in drug development. Cardiovasc. Res. 58:32-45, Sanguinetti M C, Tristani-Firouzi M. 2006; hERG potassium channels and cardiac arrhythmia. Nature 440:463-469, Webster R, Leishman D, Walker D. 2002; Towards a drug concentration effect relationship for QT prolongation and torsades de pointes. Curr. Opin. Drug Discov. Devel. 5:116-26).

[1] = Human microsome stability assay; assay type: in vitro ADME; conditions: 1 μM test compound, 0.5 mg/mL liver microsomal protein
Protocol: Human Microsome Stability Assay
The human microsomal stability assay is used for early assessment of metabolic stability of a test compound in human liver microsomes.
Human liver microsomes (Cat. NO.: 452117, Corning, USA; Cat. NO.: H2610, Xenotech, USA) were preincubated with test compound for 10 minutes at 37° C. in 100 mM potassium phosphate buffer, pH 7.4. The reactions were initiated by adding NADPH regenerating system. The final incubation mixtures contained 1 μM test compound, 0.5 mg/mL liver microsomal protein, 1 mM MgCl2, 1 mM NADP, 1 unit/mL isocitric dehydrogenase and 6 mM isocitric acid in 100 mM potassium phosphate buffer, pH 7.4. After incubation times of 0, 3, 6, 9, 15 and 30 minutes at 37° C., 300 μL of cold acetonitrile (including internal standard) was added to 100 μL incubation mixture to terminate the reaction. Following precipitation and centrifugation, the amount of compound remaining in the samples were determined by LC-MS/MS. Controls of no NADPH regenerating system at zero and 30 minutes were also prepared and analyzed.

Structure (SMILES) | safety window (hERG IC20/TLR7/8/9 IC50) (hERG K+ channels) | hERG IC20/TLR7 IC50 (hERG K+ channels) | hERG IC20/TLR9 IC50 (hERG K+ channels) | Clearance of Human microsome [1] [mL/min/kg]
C[C@@H]1CN(c2ccc(C#N)c3ncccc23)C[C@H](CN2CCN(c3ccccc3)CC2)O1 [ER-887258] | much narrower safety window | 8.1 | 0.3 | 
C[C@@H]1CN(c2ccc(C#N)c3ncccc23)C[C@H](CN2CCN(c3ccccn3)CC2)O1 [ER-888285] | much narrower safety window | 8.4 | 0.5 | 
C[C@@H]1CN(c2ccc(C#N)c3ncccc23)C[C@H](CN2CCN(c3ccncc3)CC2)O1 [ER-888286] | much narrower safety window | 0.3 | 0.2 | 
C[C@@H]1CN(c2ccc(C#N)c3ncccc23)C[C@H](CN2CC3(C2)CN(c2cnc4c(n2)CCNC4)CCO3)O1 [Example 50, 5-[(2R,6S)-2-methyl-6-[[8-(5,6,7,8-tetrahydropyrido[3,4-b]pyrazin-2-yl)-5-oxa-2,8-diazaspiro[3.5]nonan-2-yl]methyl]morpholin-4-yl]quinoline-8-carbonitrile] |  |  | >144.9 | 
C[C@@H]1CN(c2ccc(C#N)c3ncccc23)C[C@H](CN2CCN(c3ccc4c(n3)CN[C@H]4C)CC2)O1 [Example 63, 5-[(2R,6S)-2-methyl-6-[[4-[(5S)-5-methyl-6,7-dihydro-5H-pyrrolo[3,4-b]pyridin-2-yl]piperazin-1-yl]methyl]morpholin-4-yl]quinoline-8-carbonitrile] |  |  |  | 6.15
[2H]c1nc2c(C#N)ccc(N3C[C@H](CN4CCN(c5cc6c(cn5)[C@@H](C)NCC6)CC4)O[C@H](C)C3)c2nc1[2H] [Example 95, 2,3-dideuterio-8-[(2R,6S)-2-methyl-6-[[4-[(8R)-8-methyl-5,6,7,8-tetrahydro-2,7-naphthyridin-3-yl]piperazin-1-yl]methyl]morpholin-4-yl]quinoxaline-5-carbonitrile] |  |  |  | 7.13
[2H]c1nc2c(C#N)ccc(N3C[C@H](CN4CCN(c5ccc6c(n5)CN[C@H]6C)CC4)O[C@H](C)C3)c2nc1[2H] [Example 96, 2,3-dideuterio-8-[(2R,6S)-2-methyl-6-[[4-[(5S)-5-methyl-6,7-dihydro-5H-pyrrolo[3,4-b]pyridin-2-yl]piperazin-1-yl]methyl]morpholin-4-yl]quinoxaline-5-carbonitrile] |  |  |  | 6.23
[2H]c1nc2c(C#N)ccc(N3C[C@H](CN4CCN(c5ccc6c(n5)CN[C@@H]6C)CC4)O[C@H](C)C3)c2nc1[2H] [Example 97, 2,3-dideuterio-8-[(2R,6S)-2-methyl-6-[[4-[(5R)-5-methyl-6,7-dihydro-5H-pyrrolo[3,4-b]pyridin-2-yl]piperazin-1-yl]methyl]morpholin-4-yl]quinoxaline-5-carbonitrile] |  |  |  | 6.15
[2H]c1ccc2c(N3C[C@H](CN4CCN(c5ccc6c(n5)CN[C@@H]6C)CC4)O[C@H](C)C3)ccc(C#N)c2n1 [Example 98, 2-deuterio-5-[(2R,6S)-2-methyl-6-[[4-[(5R)-5-methyl-6,7-dihydro-5H-pyrrolo[3,4-b]pyridin-2-yl]piperazin-1-yl]methyl]morpholin-4-yl]quinoline-8-carbonitrile] |  |  |  | 8.02
[2H]c1ccc2c(N3C[C@H](CN4CCN(c5ccc6c(n5)CN[C@H]6C)CC4)O[C@H](C)C3)ccc(C#N)c2n1 [Example 99, 2-deuterio-5-[(2R,6S)-2-methyl-6-[[4-[(5S)-5-methyl-6,7-dihydro-5H-pyrrolo[3,4-b]pyridin-2-yl]piperazin-1-yl]methyl]morpholin-4-yl]quinoline-8-carbonitrile] |  |  |  | 6.32
COc1ccc(N2CCN(C[C@H]3CN(c4ccc(C#N)c5ncccc45)C[C@@H](C)O3)CC2)cc1 [Example R1, 5-[(2S,6R)-2-[[4-(4-methoxyphenyl)piperazin-1-yl]methyl]-6-methyl-morpholin-4-yl]quinoline-8-carbonitrile] | much narrower safety window | 9.3 | 0.1 | 
C[C@@H]1CN(c2ccc(C#N)c3ncccc23)C[C@H](CN2CCN(c3ccc(Cl)cc3)CC2)O1 [Example R2, 5-[(2S,6R)-2-[[4-(4-chlorophenyl)piperazin-1-yl]methyl]-6-methyl-morpholin-4-yl]quinoline-8-carbonitrile] | much narrower safety window | 1.3 | 0.04 | 
